# Laboratory results as given in ChEMBL document CHEMBL1201862, “PubChem BioAssay data set” (2004).
#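 Values below derive from 48-hour exposures of cells grown in 96-well plates, with endpoints linearly interpolated between the two concentrations bracketing the appropriate inhibition level. GI50 marks 50% less growth.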 Activity calls are given as the source filed them. No stated cut-off is given here; in the data, active = GI50 up to about 1.1 µM and inactive = higher.
# Columns and labels:
# Experiment in all cases: NCI anticancer screen, dose series, 48 h
# [1] = tested on: COLO 205
# [2] = tested on: OVCAR-8
# [3] = tested on: SF-295
# [4] = tested on: SNB-19
# [5] = tested on: KM12
# [6] = tested on: NCI-H23
# [7] = tested on: MCF7
# [8] = tested on: MDA-N
# [9] = tested on: A549
# [10] = tested on: U-251
# [11] = tested on: OVCAR-5
# [12] = tested on: UO-31
# [13] = tested on: 786-0
# [14] = tested on: SF-539
# [15] = tested on: SK-OV-3
# [16] = tested on: HCC 2998
# [17] = tested on: HOP-62
# [18] = tested on: CCRF-CEM
# [19] = tested on: HT-29
# [20] = tested on: UACC-257
# [21] = tested on: EKVX
# [22] = tested on: TK-10
# [23] = tested on: Hs-578T
# [24] = tested on: LOX IMVI
# [25] = tested on: DU-145
# [26] = tested on: RXF 393
# [27] = tested on: PC-3
# [28] = tested on: NCI-H522
# [29] = tested on: SF-268
# [30] = tested on: Malme-3M
# [31] = tested on: SK-MEL-5
# [32] = tested on: HCT-15
# [33] = tested on: NCI/ADR-RES
# [34] = tested on: NCI-H226
# [35] = tested on: MOLT-4
# [36] = tested on: HL-60
# [37] = tested on: SN12C
# [38] = tested on: SR
# [39] = tested on: SK-MEL-28
# [40] = tested on: M14
# [41] = tested on: IGROV-1
# [42] = tested on: OVCAR-4
# [43] = tested on: CAKI-1
# [44] = tested on: MDA-MB-435
# [45] = tested on: K562
# [46] = tested on: HOP-92
# [47] = tested on: RPMI-8226
# [48] = tested on: T47D
# [49] = tested on: A498
# [50] = tested on: SK-MEL-2
# [51] = tested on: ACHN
# [52] = tested on: BT-549
# [53] = tested on: SNB-75
# [54] = tested on: NCI-H460
# [55] = tested on: HCT-116
# [56] = tested on: UACC-62
# [57] = tested on: OVCAR-3
# [58] = tested on: MDA-MB-231
# [59] = tested on: SW-620
# [60] = tested on: LXFL 529
# [61] = tested on: M19-MEL
# [62] = tested on: DLD-1
# [63] = tested on: KM-20L2
# [64] = tested on: SNB-78
# [65] = tested on: DMS-273
# [66] = tested on: DMS-114
compound,measurement,setting,value
CN(N)/N=N/c1[nH]cnc1C(N)=O,GI50,[1],17.5 µM (inactive)
same,GI50,[2],3.14 µM (inactive)
same,GI50,[3],6.14 µM (inactive)
same,GI50,[4],> 100 µM (inactive)
same,GI50,[5],23.7 µM (inactive)
same,GI50,[6],50.4 µM (inactive)
same,GI50,[7],48.4 µM (inactive)
same,GI50,[8],13.4 µM (inactive)
same,GI50,[9],> 100 µM (inactive)
same,GI50,[10],> 66.1 µM (inactive)
same,GI50,[11],> 89.7 µM (inactive)
same,GI50,[12],4 µM (inactive)
same,GI50,[13],12.1 µM (inactive)
same,GI50,[14],13.7 µM (inactive)
same,GI50,[15],3.33 µM (inactive)
same,GI50,[16],3.3 µM (inactive)
same,GI50,[17],48.9 µM (inactive)
same,GI50,[18],2.72 µM (inactive)
same,GI50,[19],99.8 µM (inactive)
same,GI50,[20],54.2 µM (inactive)
same,GI50,[21],36.1 µM (inactive)
same,GI50,[22],7.67 µM (inactive)
same,GI50,[23],37.5 µM (inactive)
same,GI50,[24],1.65 µM (inactive)
same,GI50,[25],5.57 µM (inactive)
same,GI50,[26],> 100 µM (inactive)
same,GI50,[27],15.3 µM (inactive)
same,GI50,[28],30.5 µM (inactive)
same,GI50,[29],5.52 µM (inactive)
same,GI50,[30],4.55 µM (inactive)
same,GI50,[31],37.7 µM (inactive)
same,GI50,[32],22.8 µM
same,GI50,[33],5.35 µM (inactive)
same,GI50,[34],23.4 µM (inactive)
same,GI50,[35],1.23 µM (inactive)
same,GI50,[36],0.531 µM (active)
same,GI50,[37],4.82 µM (inactive)
same,GI50,[38],0.352 µM (active)
same,GI50,[39],> 100 µM (inactive)
same,GI50,[40],3.01 µM (inactive)
same,GI50,[41],9.93 µM (inactive)
same,GI50,[42],3.53 µM (inactive)
same,GI50,[43],4.24 µM (inactive)
same,GI50,[44],25.2 µM (inactive)
same,GI50,[45],1.92 µM (inactive)
same,GI50,[46],17.5 µM (inactive)
same,GI50,[47],3.36 µM (inactive)
same,GI50,[48],> 34.5 µM (inactive)
same,GI50,[49],39.1 µM (inactive)
same,GI50,[50],4.79 µM (inactive)
same,GI50,[51],22.3 µM (inactive)
same,GI50,[52],42.2 µM (inactive)
same,GI50,[53],4.66 µM (inactive)
same,GI50,[54],13.2 µM (inactive)
same,GI50,[55],9.12 µM (inactive)
same,GI50,[56],6.14 µM (inactive)
same,GI50,[57],17.5 µM (inactive)
same,GI50,[58],3.22 µM (inactive)
same,GI50,[59],9.75 µM (inactive)
CCOC(=O)C(C(=O)OCC)=c1sc(=C(C(=O)OCC)C(=O)OCC)s1,GI50,[1],> 100 µM (inactive)
same,GI50,[2],> 100 µM (inactive)
same,GI50,[3],> 100 µM (inactive)
same,GI50,[5],> 100 µM (inactive)
same,GI50,[6],> 100 µM (inactive)
same,GI50,[9],> 100 µM (inactive)
same,GI50,[11],> 100 µM (inactive)
same,GI50,[13],> 100 µM (inactive)
same,GI50,[15],> 100 µM (inactive)
same,GI50,[16],> 100 µM (inactive)
same,GI50,[17],> 100 µM (inactive)
same,GI50,[60],> 100 µM (inactive)
same,GI50,[18],> 100 µM (inactive)
same,GI50,[61],> 100 µM (inactive)
same,GI50,[19],> 100 µM (inactive)
same,GI50,[20],> 100 µM (inactive)
same,GI50,[21],> 100 µM (inactive)
same,GI50,[22],> 100 µM (inactive)
same,GI50,[24],> 100 µM (inactive)
same,GI50,[26],> 100 µM (inactive)
same,GI50,[62],> 100 µM (inactive)
same,GI50,[28],> 100 µM (inactive)
same,GI50,[29],> 100 µM (inactive)
same,GI50,[30],> 100 µM (inactive)
same,GI50,[63],> 100 µM (inactive)
same,GI50,[64],> 100 µM (inactive)
same,GI50,[31],> 100 µM (inactive)
same,GI50,[32],> 100 µM
same,GI50,[65],> 100 µM (inactive)
same,GI50,[35],> 100 µM (inactive)
same,GI50,[36],> 100 µM (inactive)
same,GI50,[37],> 100 µM (inactive)
same,GI50,[39],> 100 µM (inactive)
same,GI50,[40],> 100 µM (inactive)
same,GI50,[41],> 100 µM (inactive)
same,GI50,[42],> 100 µM (inactive)
same,GI50,[43],> 100 µM (inactive)
same,GI50,[45],> 100 µM (inactive)
same,GI50,[46],> 100 µM (inactive)
same,GI50,[47],> 100 µM (inactive)
same,GI50,[50],> 100 µM (inactive)
same,GI50,[51],> 100 µM (inactive)
same,GI50,[53],76.2 µM (inactive)
same,GI50,[54],> 100 µM (inactive)
same,GI50,[56],> 100 µM (inactive)
same,GI50,[57],> 100 µM (inactive)
same,GI50,[59],> 100 µM (inactive)
COCC1N=C(c2cc(OC)c(OC)c(OC)c2-c2cc3c(cc2C2OCCCO2)OCO3)O[C@H]1c1ccccc1 (stereo partly drawn),GI50,[2],> 100 µM (inactive)
same,GI50,[66],> 100 µM (inactive)
same,GI50,[3],> 100 µM (inactive)
same,GI50,[4],> 100 µM (inactive)
same,GI50,[5],> 100 µM (inactive)
same,GI50,[6],> 100 µM (inactive)
same,GI50,[9],> 100 µM (inactive)
same,GI50,[10],> 100 µM (inactive)
same,GI50,[11],> 100 µM (inactive)
same,GI50,[12],> 100 µM (inactive)
same,GI50,[13],> 100 µM (inactive)
same,GI50,[14],> 100 µM (inactive)
same,GI50,[15],> 100 µM (inactive)
same,GI50,[16],> 100 µM (inactive)
same,GI50,[17],> 100 µM (inactive)
same,GI50,[18],> 100 µM (inactive)
same,GI50,[61],> 100 µM (inactive)
same,GI50,[19],> 100 µM (inactive)
same,GI50,[20],> 100 µM (inactive)
same,GI50,[21],> 100 µM (inactive)
same,GI50,[22],> 100 µM (inactive)
same,GI50,[24],> 100 µM (inactive)
same,GI50,[26],> 100 µM (inactive)
same,GI50,[62],> 100 µM (inactive)
same,GI50,[28],> 100 µM (inactive)
same,GI50,[29],> 100 µM (inactive)
same,GI50,[30],> 100 µM (inactive)
same,GI50,[63],> 100 µM (inactive)
same,GI50,[31],> 100 µM (inactive)
same,GI50,[32],> 100 µM
same,GI50,[65],> 100 µM (inactive)
same,GI50,[34],> 100 µM (inactive)
same,GI50,[35],> 100 µM (inactive)
same,GI50,[36],> 100 µM (inactive)
same,GI50,[37],> 100 µM (inactive)
same,GI50,[39],> 100 µM (inactive)
same,GI50,[40],> 100 µM (inactive)
same,GI50,[41],> 100 µM (inactive)
same,GI50,[42],> 100 µM (inactive)
same,GI50,[43],79.4 µM (inactive)
same,GI50,[45],> 100 µM (inactive)
same,GI50,[46],> 100 µM (inactive)
same,GI50,[47],> 100 µM (inactive)
same,GI50,[49],> 100 µM (inactive)
same,GI50,[50],> 100 µM (inactive)
same,GI50,[51],> 100 µM (inactive)
same,GI50,[53],> 100 µM (inactive)
same,GI50,[54],> 100 µM (inactive)
same,GI50,[55],> 100 µM (inactive)
same,GI50,[56],> 100 µM (inactive)
same,GI50,[57],> 100 µM (inactive)
same,GI50,[59],> 100 µM (inactive)
